Measured values as given in patent US6380465B1, “Cytochrome P450 enzymes and related compounds and methods” (University of Kentucky Research Foundation, priority 1998, dated 2002).

Assays:
CYP72A1 P450 = experiment: Metabolism of pesticide substrates by the CYP72A1 P450 expressed with a reductase (yeast microsomes, [14C]-labeled substrates, HPLC); assay type: in vitro ADME, Zea mays (maize); settings: expressed in the presence of a reductase; chromatographs FIGS. 8-11
Description: Both genes (CYP72A1 and CYP92A1), obtained as described in Example 1, were introduced into pYeDP60 vector for yeast expression. CYP72A1 was introduced as a full length gene with in-frame Met 1 and 8 as the start codons, while CYP92A1 was modified for the expression.
Expression strategies include using both full length or truncated (Met 8 start site) CYP72A1 cDNA in yeast strains WAT11, WAT21 W (R) from Philippe Urban and Denis Pompon, with, optionally, yeast vector pYeDP60. Expression is ideally achieved with full length cDNA and WAT11. Expression may also require 36 hours rather than 24 hours of galactose induction prior to microsome preparation. Glucose (SGI) or galactose (SLI) media prior to induction will give expression.
Metabolism experiments can be accomplished using microsomes prepared from yeast cells. The substrates can be incubated with [^14C]-labeled substrates and products analyzed by HPLC.

corn line GA209 = settings: FIG. 12, thesis of Laura Boldt; cited from earlier work
soybean P450 = settings: cited from earlier work
CYP73A1 = biological target: T1, CYP73A1 (Helianthus tuberosus, UniProt Q04468); settings: cited from earlier work
T1 sequence (Q04468 1-505): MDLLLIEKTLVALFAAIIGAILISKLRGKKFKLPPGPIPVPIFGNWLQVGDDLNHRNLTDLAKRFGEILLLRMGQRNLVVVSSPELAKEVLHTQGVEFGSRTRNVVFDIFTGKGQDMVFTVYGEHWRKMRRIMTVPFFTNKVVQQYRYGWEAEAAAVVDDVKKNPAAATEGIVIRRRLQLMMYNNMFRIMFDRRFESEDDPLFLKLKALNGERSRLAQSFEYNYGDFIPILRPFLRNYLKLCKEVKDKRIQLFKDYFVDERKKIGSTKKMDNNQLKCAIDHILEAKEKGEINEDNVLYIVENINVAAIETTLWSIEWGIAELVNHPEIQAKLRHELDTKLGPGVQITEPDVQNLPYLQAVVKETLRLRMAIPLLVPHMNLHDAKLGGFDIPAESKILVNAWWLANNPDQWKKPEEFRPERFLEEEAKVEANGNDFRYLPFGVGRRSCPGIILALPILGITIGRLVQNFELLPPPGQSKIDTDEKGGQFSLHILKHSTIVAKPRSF

[1] = test system: multiple pesticide metabolizing P450 in corn; settings: FIG. 13, cited from earlier work
CYP72A1 = experiment: Induction of CYP72A1 expression by NA-treatment (Northern blot, maize seedlings); assay type: in vivo; settings: FIG. 5
Experimental: (§1) A maize cDNA library was constructed from napthalic anhydride (NA)-treated Pioneer 3343IR 3.5-day-old seedlings using lambda-ZAPII vector kit (Stratagene).
(§2) Northern blot analysis was performed with total RNA isolated from control and […] and hybridized under high stringency conditions. To estimate the copy number, Southern blot analysis was performed using genomic DNA from 3343IR maize which was digested with SacI EcoRV, EcoRI, HindIII, and BamHI. The analysis was carried out under high stringency (65 degrees Celsius in 0.1×SSC and 0.1% SDS).
(§3) Based on the results of the genomic Southern blot analysis, the hybridization patterns were consistent with those predicted from the restriction patterns of the corresponding cDNAs. […] Certain physico-chemical characteristics for the deduced proteins, antigenicity and secondary structure were calculated using Network Protein Sequence Analysis at IBCP, France.

CYP92A1 = experiment: Induction of CYP92A1 expression by NA-treatment (Northern blot, maize seedlings); assay type: in vivo; settings: FIG. 5
Experimental: as §1, §2, §3

| SMILES | metabolism of the substrate by the CYP72A1 P450 (CYP72A1 P450) | sensitivity of corn line GA209 to the herbicide (corn line GA209) | other results |
| --- | --- | --- | --- |
| CC(C)N1C(=O)c2ccccc2NS1(=O)=O [bentazon] | shown to metabolize | sensitive |  |
| CCc1cccc(CC)c1N(COC)C(=O)CCl [alachlor] | Unmetabolized |  |  |
| Cc1ccc(NC(=O)N(C)C)cc1Cl [chlortoluron] | shown to metabolize |  | metabolism by a soybean P450 (soybean P450): shown to metabolize; metabolism by CYP73A1 (CYP73A1): shown to metabolize |
| COc1cc(Cl)nc(NC(=O)NS(=O)(=O)c2ccccc2C(=O)O)n1 [chlorimuron] | shown to metabolize |  |  |
| CCOP(=S)(OCC)SCS(=O)(=O)C(C)(C)C [terbufos-sulfone] |  |  | inhibition of in-vitro metabolism of bentazon ([1]; substrate bentazon): inhibited; inhibition of in-vitro metabolism of chlorimuron ([1]; substrate chlorimuron): inhibited; inhibition of in-vitro metabolism of imazethapyr ([1]; substrate imazethapyr): inhibited; inhibition of in-vitro metabolism of malathion ([1]; substrate malathion): inhibited; inhibition of in-vitro metabolism of nicosulfuron ([1]; substrate nicosulfuron): inhibited |
| O=C(O)COc1ccc(Cl)cc1Cl [2,4-D] | Unmetabolized |  |  |
| CON(C)C(=O)Nc1ccc(Cl)c(Cl)c1 [linuron] | Unmetabolized |  | metabolism by a soybean P450 (soybean P450): shown to metabolize |
| O=C1OC(=O)c2cccc3cccc1c23 [NA, napthalic anhydride] |  |  | induction of CYP72A1 expression (CYP72A1): highly induced; induction of CYP92A1 expression (CYP92A1): induced significantly less |
| COc1cc(OC)nc(NC(=O)NS(=O)(=O)c2ncccc2C(=O)N(C)C)n1 [nicosulfuron] |  | sensitive |  |
| CCOC(=O)CC(SP(=S)(OC)OC)C(=O)OCC (stereo not drawn) [malathion] | shown to metabolize |  |  |
| CCc1cnc(C2=NC(C)(C(C)C)C(=O)N2)c(C(=O)O)c1 (stereo not drawn) [imazethapyr] |  | sensitive |  |
| O=C(Nc1nc(OC(F)F)cc(OC(F)F)n1)NS(=O)(=O)c1ccccc1C(=O)O [primisulfuron] |  | sensitive |  |
